According to ChEMBL document CHEMBL1201862, “PubChem BioAssay data set” (2004):
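Following 48 hours of exposure in 96-well plates, responses at five concentrations were used to interpolate endpoints linearly. GI50: concentration for 50% inhibition of growth.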 Active and inactive are the calls of the source. No stated cut-off is given here; in the data, active = GI50 up to about 1.1 µM and inactive = higher.

What was measured:
Experiment in all cases: NCI anticancer screen, dose series, 48 h
ACHN = test system: ACHN
CAKI-1 = test system: CAKI-1
CCRF-CEM = test system: CCRF-CEM
EKVX = test system: EKVX
HCT-15 = test system: HCT-15
HL-60 = test system: HL-60
HOP-62 = test system: HOP-62
Hs-578T = test system: Hs-578T
KM12 = test system: KM12
MDA-MB-231 = test system: MDA-MB-231
MDA-N = test system: MDA-N
NCI-H460 = test system: NCI-H460
NCI/ADR-RES = test system: NCI/ADR-RES
OVCAR-3 = test system: OVCAR-3
PC-3 = test system: PC-3
SF-295 = test system: SF-295
SK-MEL-28 = test system: SK-MEL-28
SK-MEL-5 = test system: SK-MEL-5
SR = test system: SR
NCI-H522 = test system: NCI-H522

| Compound | GI50 (ACHN) | GI50 (CAKI-1) | GI50 (CCRF-CEM) | GI50 (EKVX) | GI50 (HCT-15) | GI50 (HL-60) | GI50 (HOP-62) | GI50 (Hs-578T) | GI50 (KM12) | GI50 (MDA-MB-231) | GI50 (MDA-N) | GI50 (NCI-H460) | GI50 (NCI/ADR-RES) | GI50 (OVCAR-3) | GI50 (PC-3) | GI50 (SF-295) | GI50 (SK-MEL-28) | GI50 (SK-MEL-5) | GI50 (SR) | GI50 (NCI-H522) |
| --- | --- | --- | --- | --- | --- | --- | --- | --- | --- | --- | --- | --- | --- | --- | --- | --- | --- | --- | --- | --- |
| CCN1c2cc(Br)cc3[nH]c(=O)n(c23)CCC1C (centres undefined) | 19.5 µM (inactive) | 11.6 µM (inactive) | 12 µM (inactive) | 1.43 µM (inactive) | 14.5 µM | 11.9 µM (inactive) | 18 µM (inactive) | 3.46 µM (inactive) | 15.1 µM (inactive) | 17.3 µM (inactive) | 4.89 µM (inactive) | 17 µM (inactive) | 5.7 µM (inactive) | 14.6 µM (inactive) | 17.2 µM (inactive) | 16 µM (inactive) | 18.7 µM (inactive) | 15.2 µM (inactive) | 6.56 µM (inactive) |  |
| N#Cc1ccc(-c2nc(C#N)c(N)o2)cc1 | > 10 µM (inactive) | > 10 µM (inactive) | > 10 µM (inactive) | > 10 µM (inactive) | > 10 µM | > 10 µM (inactive) | > 10 µM (inactive) | > 10 µM (inactive) | > 10 µM (inactive) | > 10 µM (inactive) | > 10 µM (inactive) | > 10 µM (inactive) | > 10 µM (inactive) |  | > 10 µM (inactive) | > 10 µM (inactive) | > 10 µM (inactive) | > 10 µM (inactive) | > 10 µM (inactive) | > 10 µM (inactive) |
| COC(=O)c1ccccc1/C=C1\Cc2cc3c(cc2C1=O)CCC3 | > 100 µM (inactive) | > 100 µM (inactive) |  | > 100 µM (inactive) | 29.8 µM | > 100 µM (inactive) | 29.6 µM (inactive) | > 10 µM (inactive) | > 100 µM (inactive) | > 100 µM (inactive) | 3.78 µM (inactive) | > 100 µM (inactive) | > 100 µM (inactive) | > 100 µM (inactive) | 8.51 µM (inactive) | 43.5 µM (inactive) | > 100 µM (inactive) | > 100 µM (inactive) | > 100 µM (inactive) | 68.9 µM (inactive) |
| CC[C@]12C=CCN3CC[C@@]4(c5cc(Br)c(OC)cc5N(C)[C@H]4[C@@](O)(C(=O)NC(Cc4c[nH]c5ccccc45)C(=O)OC)[C@@H]1O)[C@@H]32 (some centres undefined) | 17.5 µM (inactive) | 86.1 µM (inactive) | 5.62 µM (inactive) | 18.4 µM (inactive) | 5.74 µM | 13.5 µM (inactive) | 12.6 µM (inactive) | 58.3 µM (inactive) | 11 µM (inactive) | 30.6 µM (inactive) | 23.3 µM (inactive) |  | 7.91 µM (inactive) | 9.16 µM (inactive) | 8.2 µM (inactive) | 9.46 µM (inactive) | 92.9 µM (inactive) | 7.31 µM (inactive) | 4.33 µM (inactive) | 8.83 µM (inactive) |
| CCC(C(=O)c1cccs1)C(O)(C(F)(F)F)C(F)(F)F (centres undefined) | > 100 µM (inactive) | > 100 µM (inactive) |  | > 100 µM (inactive) | > 100 µM | 3.39 µM (inactive) | > 100 µM (inactive) | > 100 µM (inactive) | > 100 µM (inactive) | > 100 µM (inactive) | > 100 µM (inactive) | > 100 µM (inactive) | > 100 µM (inactive) | > 100 µM (inactive) | > 100 µM (inactive) | > 100 µM (inactive) | > 100 µM (inactive) | > 100 µM (inactive) | > 100 µM (inactive) | > 100 µM (inactive) |
| CC1=CC(C)C(C)N(CCNC(=O)Nc2ccccc2)c2ccccc21 (centres undefined) | 15.8 µM (inactive) | 19.5 µM (inactive) | 20.7 µM (inactive) | 25.9 µM (inactive) | 21.9 µM |  | 22.2 µM (inactive) | 2.33 µM (inactive) | 26.8 µM (inactive) | 13.3 µM (inactive) | 22.5 µM (inactive) | 19.8 µM (inactive) | 18.2 µM (inactive) | 16 µM (inactive) | 13.2 µM (inactive) | 10 µM (inactive) | 28.6 µM (inactive) | 14.1 µM (inactive) | 16.3 µM (inactive) | 12.1 µM (inactive) |
| CC1(C)OC(=O)C(C)(C)C(=O)O1 | > 100 µM (inactive) | > 100 µM (inactive) | > 100 µM (inactive) | > 100 µM (inactive) | > 100 µM | > 10 µM (inactive) | > 100 µM (inactive) | > 100 µM (inactive) | > 100 µM (inactive) | > 100 µM (inactive) | > 100 µM (inactive) | > 100 µM (inactive) | > 100 µM (inactive) |  | > 100 µM (inactive) | > 100 µM (inactive) | > 100 µM (inactive) | > 100 µM (inactive) | > 100 µM (inactive) | > 100 µM (inactive) |
| COC(=O)C(C)(C)OCc1ccc(C2NC(=O)N(c3cccc(Cl)c3)C(=O)N2c2cccc(Cl)c2)cc1 (centres undefined) | 47.9 µM (inactive) | 35.2 µM (inactive) | 10.6 µM (inactive) | 10.5 µM (inactive) | 19.6 µM |  | 99.8 µM (inactive) | 3.96 µM (inactive) | 23.7 µM (inactive) | 55 µM (inactive) | 55.8 µM (inactive) | 29.4 µM (inactive) | 17.1 µM (inactive) | 56.2 µM (inactive) | 20.2 µM (inactive) | 31 µM (inactive) | > 100 µM (inactive) | 10.7 µM (inactive) | 0.52 µM (active) | 10.6 µM (inactive) |
| CC(=O)OCC(=O)[C@@]12OC(C)(C)O[C@@H]1C[C@H]1[C@@H]3CC=C4C[C@@H](O)CC[C@]4(C)[C@H]3CC[C@@]12C | 92.9 µM (inactive) | > 100 µM (inactive) | > 100 µM (inactive) | 29.6 µM (inactive) | > 100 µM | > 100 µM (inactive) | 32.2 µM (inactive) | 22.4 µM (inactive) | > 100 µM (inactive) | 61.5 µM (inactive) | > 100 µM (inactive) |  | 66.5 µM (inactive) | > 100 µM (inactive) | > 100 µM (inactive) | 33.1 µM (inactive) | > 100 µM (inactive) | > 100 µM (inactive) | > 100 µM (inactive) | 57.9 µM (inactive) |
| Nc1ccc(Sc2nnc(N)s2)cc1 | > 100 µM (inactive) |  | > 100 µM (inactive) | > 100 µM (inactive) | > 100 µM | > 100 µM (inactive) | > 100 µM (inactive) | > 100 µM (inactive) | > 100 µM (inactive) | > 100 µM (inactive) | > 100 µM (inactive) | > 100 µM (inactive) | > 100 µM (inactive) |  | > 100 µM (inactive) | > 100 µM (inactive) | > 100 µM (inactive) | > 100 µM (inactive) | > 100 µM (inactive) | > 100 µM (inactive) |
| CC(=O)OC(=C(C#N)C#N)c1nccnc1C(=O)O | > 100 µM (inactive) | > 100 µM (inactive) |  | > 100 µM (inactive) | > 100 µM | > 100 µM (inactive) |  | > 100 µM (inactive) | > 100 µM (inactive) | > 100 µM (inactive) | > 100 µM (inactive) | > 100 µM (inactive) | > 100 µM (inactive) | > 100 µM (inactive) | > 100 µM (inactive) | > 100 µM (inactive) | > 100 µM (inactive) | > 100 µM (inactive) | > 100 µM (inactive) | > 100 µM (inactive) |
| COC(=O)N1N=C(c2ccccc2)C1c1ccccc1 (centres undefined) |  | 33.6 µM (inactive) | 31.9 µM (inactive) | 42.5 µM (inactive) | 39.5 µM | 27.2 µM (inactive) |  | 71 µM (inactive) | 47.4 µM (inactive) | 24.6 µM (inactive) | 31.1 µM (inactive) | 30.8 µM (inactive) | 23.2 µM (inactive) | 37.9 µM (inactive) | 26.9 µM (inactive) |  | 39.7 µM (inactive) |  | 31.9 µM (inactive) |  |
| CC(=O)NC1C(OCc2ccccc2)OC(CO)C(O)C1OCC(=O)NC(C(=O)NC(CCC(=O)NCCCCCC(=O)Nc1ccc2c(c1)CN1C(=O)c3ccccc3C1=N2)C(N)=O)C(C)C (centres undefined) | 46.3 µM (inactive) | 28.8 µM (inactive) | > 100 µM (inactive) | 31.6 µM (inactive) | 52.2 µM | > 100 µM (inactive) | 20.3 µM (inactive) | 23.7 µM (inactive) | 19.1 µM (inactive) | 25.5 µM (inactive) | 62.7 µM (inactive) | 20.8 µM (inactive) | 45.8 µM (inactive) | 67.6 µM (inactive) | 28.5 µM (inactive) | 24.7 µM (inactive) | 20.8 µM (inactive) | 21.4 µM (inactive) | 88.1 µM (inactive) |  |
| O=C(/N=C1/OC(CN2CCOCC2)CN1C(=O)Nc1ccccc1)Nc1ccccc1 (centres undefined) | > 100 µM (inactive) | > 100 µM (inactive) | > 100 µM (inactive) | > 100 µM (inactive) | > 100 µM | > 100 µM (inactive) | > 100 µM (inactive) | > 100 µM (inactive) | > 100 µM (inactive) | > 100 µM (inactive) | > 100 µM (inactive) | > 100 µM (inactive) | > 100 µM (inactive) |  | > 100 µM (inactive) | > 100 µM (inactive) | > 100 µM (inactive) | > 100 µM (inactive) | > 100 µM (inactive) | > 100 µM (inactive) |
| CCc1n[nH]c(=O)n1N1C(=O)C2CCCCC2C1=O (centres undefined) | > 100 µM (inactive) | > 100 µM (inactive) | > 100 µM (inactive) | > 100 µM (inactive) | > 100 µM | > 100 µM (inactive) | > 100 µM (inactive) | > 100 µM (inactive) | > 100 µM (inactive) | > 100 µM (inactive) | > 100 µM (inactive) |  | > 100 µM (inactive) | > 100 µM (inactive) | > 100 µM (inactive) | > 100 µM (inactive) | > 100 µM (inactive) | > 100 µM (inactive) | > 100 µM (inactive) | > 100 µM (inactive) |
